The structures appear in SMILES notation.

A word on the EC50: it is the concentration giving half of the maximal effect.

In this assay the target is Cell division control protein 42 homolog (Homo sapiens) (UniProt P60953). The assay can be described thus: Cdc42 GTP-binding inhibition at fixed GTP, dose response, mechanism study for Ras-family GTPase inhibitor project, biochemical, nucleotide-depleted protein, Mg buffer, constant GTP (AID 2376). Conditions: GST-Cdc42 beads, BODIPY-GTP binding, flow cytometry. In general terms: In flow cytometry, cells or beads pass a laser one at a time.
Cell division control protein 42 homolog (Homo sapiens), sequence (P60953 whole entry, looked up): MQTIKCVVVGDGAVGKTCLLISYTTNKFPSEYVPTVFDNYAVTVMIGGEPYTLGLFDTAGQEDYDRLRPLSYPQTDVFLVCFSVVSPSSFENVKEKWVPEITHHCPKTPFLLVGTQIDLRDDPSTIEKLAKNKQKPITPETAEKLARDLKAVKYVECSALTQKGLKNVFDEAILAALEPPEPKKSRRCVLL

Turning to `COc1ccc(C2CC(c3ccccc3)=NN2c2ccc(S(N)(=O)=O)cc2)cc1` (stereo unspecified), the EC50 was 263 nM.
